Measured values taken from paper PMC11428108 (Frontiers in Molecular Neuroscience, 2024).

Tested on: male C57BL/6J mice
Test: Intracranial self-stimulation (ICSS) thresholds in mice with saline or nicotine osmotic minipumps
Assay type: in vivo
Conditions: SR9883 10 mg kg^−1 IP
Source text: Mice were anesthetized with a mixture of isoflurane (1–3%) and oxygen vapor then positioned in a stereotaxic frame in the flat-skull position (Kopf Instruments) ([Fowler et al., 2013]; [Johnson et al., 2008]). A stainless-steel bipolar electrode (Plastics One) was implanted into the lateral hypothalamus according to the following stereotaxic coordinates: Anterior/Posterior: −0.5 mm from bregma; […] Dorsal/Ventral: −5.0 mm from brain surface ([Fowler et al., 2013]; [Johnson et al., 2008]; [Paxinos and Franklin, 2001]). Mice were permitted 72 h to recover from surgery prior to training in the ICSS procedure. Mice were permitted to respond for intracranial electrical stimulation according to a modification of the discrete-trial current-threshold procedure developed by Kornetsky and colleagues ([Gill et al., 2004]), as previously described ([Fowler et al., 2013]; [Johnson et al., 2008]). […] The frequency of the stimulation was selected for each mouse so that current-intensity thresholds were within 25 to 400 μA, permitting threshold elevations and reductions to be reliably detected. This frequency for each mouse was held constant throughout the experiment. […] The time between the onset of the non-contingent stimulus and a positive response was recorded as the response latency. […] Effects of intraperitoneal injections of SR9883 on ICSS thresholds were assessed >7 days after minipump implantation. Concentration-response curves of SR9883 actions in nAChR-expressing HEK cells and oocytes were fitted to the Hill equation using a nonlinear least squares curve fit method and efficacy and potency values were calculated as previously described ([Wang et al., 2015]). […] For the ICSS threshold experiment, percentages of baseline reward threshold scores were calculated by expressing the absolute threshold scores as a percentage of the scores obtained during baseline. […] Response latency data were analyzed in the same manner as the threshold data. […] Effects of SR9883 on responding for food pellets in rats was analyzed by a two-tailed paired t test. […]

N#Cc1cccc(-n2nnc(-c3cccnc3)n2)c1 [SR9883, 3-(5-(pyridin-3-yl)-2H-tetrazol-2-yl)benzonitrile]
ICSS response latencies (minipumps delivering either saline or nicotine): had no effect | ICSS thresholds (nicotine-delivering osmotic minipumps (24 mg kg^−1 per day), p = 0.0278 vs vehicle): elevated | ICSS thresholds (saline-delivering osmotic minipumps): had no effect
